{"source": "paper PMC3730168", "about": "“Thiol Redox Sensitivity of Two Key Enzymes of Heme Biosynthesis and Pentose Phosphate Pathways: Uroporphyrinogen Decarboxylase and Transketolase” (Oxidative Medicine and Cellular Longevity, 2013)", "key": {"[1]": {"molecular_target": "T1, Hem12p (Saccharomyces cerevisiae, UniProt P32347)", "T1 construct": "gene HEM12; recombinant, codon-optimised synthetic DNA, C-terminal poly-His tag, E. coli, Ni-Sepharose (Abyntek Biopharma)", "T1 sequence (P32347 1-362)": "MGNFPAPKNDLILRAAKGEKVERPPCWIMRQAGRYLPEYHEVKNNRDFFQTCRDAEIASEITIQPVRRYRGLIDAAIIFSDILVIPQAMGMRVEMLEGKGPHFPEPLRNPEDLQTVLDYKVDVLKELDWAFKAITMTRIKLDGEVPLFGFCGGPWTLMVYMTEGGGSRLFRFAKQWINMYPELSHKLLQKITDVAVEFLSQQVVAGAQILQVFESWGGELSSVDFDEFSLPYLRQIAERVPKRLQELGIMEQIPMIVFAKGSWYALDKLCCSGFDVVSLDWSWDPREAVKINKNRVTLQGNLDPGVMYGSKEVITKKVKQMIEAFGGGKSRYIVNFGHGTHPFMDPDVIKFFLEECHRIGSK", "test": "fluorescent labelling with eosin-GSH, eosin absorbance at […] nm", "type": "binding", "details": "covalent; labelled compound; excess DiEGSSG"}, "[2]": {"molecular_target": "T2, Tkl1p (Saccharomyces cerevisiae, UniProt P23254)", "T2 construct": "gene TKL1; recombinant, codon-optimised synthetic DNA, C-terminal poly-His tag, E. coli, Ni-Sepharose (Abyntek Biopharma); homodimer", "T2 sequence (P23254 1-680)": "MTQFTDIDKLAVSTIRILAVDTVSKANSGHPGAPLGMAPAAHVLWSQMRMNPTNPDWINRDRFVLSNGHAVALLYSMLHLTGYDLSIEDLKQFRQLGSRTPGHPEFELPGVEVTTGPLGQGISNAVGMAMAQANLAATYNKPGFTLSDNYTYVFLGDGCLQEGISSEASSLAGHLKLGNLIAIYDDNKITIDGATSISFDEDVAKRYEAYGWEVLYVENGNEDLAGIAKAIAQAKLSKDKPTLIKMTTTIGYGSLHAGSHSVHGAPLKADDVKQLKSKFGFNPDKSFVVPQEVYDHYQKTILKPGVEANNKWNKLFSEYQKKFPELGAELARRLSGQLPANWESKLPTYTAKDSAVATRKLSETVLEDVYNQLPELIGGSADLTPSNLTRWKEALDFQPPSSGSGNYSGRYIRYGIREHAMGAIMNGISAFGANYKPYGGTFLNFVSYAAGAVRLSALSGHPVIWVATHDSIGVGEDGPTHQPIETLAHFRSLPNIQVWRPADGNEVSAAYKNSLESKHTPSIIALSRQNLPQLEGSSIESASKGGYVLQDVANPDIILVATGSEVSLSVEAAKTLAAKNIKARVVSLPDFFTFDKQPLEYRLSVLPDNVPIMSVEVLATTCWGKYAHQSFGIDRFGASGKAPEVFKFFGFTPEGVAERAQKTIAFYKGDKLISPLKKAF", "test": "fluorescent labelling with eosin-GSH, eosin absorbance at […] nm", "type": "binding", "details": "covalent; labelled compound; excess DiEGSSG"}}}
{"smiles": "O=C(O)CNC(=O)[C@H](CSSC[C@H](NC(=O)CC[C@H](NC(=S)Nc1ccc(-c2c3cc(Br)c(=O)c(Br)c-3oc3c(Br)c(O)c(Br)cc23)c(C(=O)O)c1)C(=O)O)C(=O)NCC(=O)O)NC(=O)CC[C@H](NC(=S)Nc1ccc(-c2c3cc(Br)c(=O)c(Br)c-3oc3c(Br)c(O)c(Br)cc23)c(C(=O)O)c1)C(=O)O", "note": "[DiEGSSG, dieosinediglutathione]", "values": [{"measurement": "moles of fluorescent glutathione per mole protein", "setting": "[1]", "result": "~ 1.5 mol/mol"}, {"measurement": "moles of fluorescent moiety per mole protein", "setting": "[2]", "result": "~ 0.35 mol/mol"}]}
